# Data: publication PMC10165273, “Itch receptor MRGPRX4 interacts with the receptor activity–modifying proteins” (The Journal of Biological Chemistry, 2023)
# Where two headings read alike, the source gives them in different places.
# Molecular target: T1, MRGPRX4 (Homo sapiens, UniProt Q96LA9)
# T1 construct: expressed in transfected cells; host or cells: HEK293T
# Experiment: IP1 accumulation HTRF assay, MRGPRX4
# Format: cell-based
# Set-up: key to IP1 Basal / IP1 accumulation with YM (Figure 1c) / response to agonist, MRGPRX4 / IP1 accumulation: % IP1: unstimulated mock-transfected = 0%, fully stimulated MRGPRX4 = 100%
# Conditions: for IP1 accumulation (normalized): Supplementary Figure 5d-g
# [1] = Tet-On MRGPRX4, over 1pg/cell Normalized, Dox 3300 ng/mL (Fig. S5C)
# T1 sequence (Q96LA9 whole entry): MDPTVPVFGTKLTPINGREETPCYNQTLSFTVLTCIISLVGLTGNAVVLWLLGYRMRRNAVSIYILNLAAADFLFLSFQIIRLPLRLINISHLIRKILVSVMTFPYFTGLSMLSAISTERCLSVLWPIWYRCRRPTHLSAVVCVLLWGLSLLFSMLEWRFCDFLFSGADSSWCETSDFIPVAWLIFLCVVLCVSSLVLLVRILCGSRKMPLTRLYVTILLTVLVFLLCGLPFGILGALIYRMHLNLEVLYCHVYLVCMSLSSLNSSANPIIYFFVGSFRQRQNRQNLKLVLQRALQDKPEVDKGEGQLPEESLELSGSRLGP
smiles,measurement,setting,value
CC(C)[C@H]1CC[C@H](C(=O)N[C@H](Cc2ccccc2)C(=O)O)CC1 [Nateglinide],EC50,"Tet-On MRGPRX4 1pg/cell, Dox 3300 ng/mL (Fig. S5B), read-out: IP1 EC50",9.26 µM
same,Emax,"Tet-On MRGPRX4 1pg/cell, Dox 3300 ng/mL (Fig. S5B), read-out: IP1 Emax",34.4%
same,Emax,"Tet-On MRGPRX4 1pg/cell, Dox 3300 ng/mL (Fig. S5B), read-out: IP1 span",35.4%
same,IP1 Basal,"Tet-On MRGPRX4 1pg/cell, No dox (Fig. S5B)",-1.503
same,Emax,"Tet-On MRGPRX4 1pg/cell, No dox (Fig. S5B), read-out: IP1 Emax",25%
same,Emax,"Tet-On MRGPRX4 1pg/cell, No dox (Fig. S5B), read-out: IP1 span",26.5%
same,IP1 Basal,"Tet-On MRGPRX4 2pg/cell, Dox 13 ng/mL (Fig. S5A)",6.149
same,EC50,"Tet-On MRGPRX4 2pg/cell, Dox 13 ng/mL (Fig. S5A), read-out: IP1 EC50",7.35 µM
same,Emax,"Tet-On MRGPRX4 2pg/cell, Dox 13 ng/mL (Fig. S5A), read-out: IP1 Emax",84.9%
same,EC50,"Tet-On MRGPRX4 2pg/cell, Dox 13 ng/mL (Fig. S5A), read-out: IP1 logEC50 (converted)",7.35 µM
same,Emax,"Tet-On MRGPRX4 2pg/cell, Dox 13 ng/mL (Fig. S5A), read-out: IP1 span",78.8%
same,IP1 Basal,"Tet-On MRGPRX4 2pg/cell, Dox 40 ng/mL (Fig. S5A)",7.421
same,EC50,"Tet-On MRGPRX4 2pg/cell, Dox 40 ng/mL (Fig. S5A), read-out: IP1 EC50",6.07 µM
same,Emax,"Tet-On MRGPRX4 2pg/cell, Dox 40 ng/mL (Fig. S5A), read-out: IP1 Emax",87.5%
same,Emax,"Tet-On MRGPRX4 2pg/cell, Dox 40 ng/mL (Fig. S5A), read-out: IP1 span",80.1%
same,IP1 Basal,"Tet-On MRGPRX4 2pg/cell, Dox 1100 ng/mL (Fig. S5A)",11.03
same,Emax,"Tet-On MRGPRX4 2pg/cell, Dox 1100 ng/mL (Fig. S5A), read-out: IP1 Emax",101%
same,EC50,"Tet-On MRGPRX4 2pg/cell, Dox 1100 ng/mL (Fig. S5A), read-out: IP1 logEC50 (converted)",5.41 µM
same,Emax,"Tet-On MRGPRX4 2pg/cell, Dox 1100 ng/mL (Fig. S5A), read-out: IP1 span",90.4%
same,IP1 Basal,"Tet-On MRGPRX4 2pg/cell, Dox 3300 ng/mL (Fig. S5A)",10.81
same,EC50,"Tet-On MRGPRX4 2pg/cell, Dox 3300 ng/mL (Fig. S5A), read-out: IP1 EC50",6.36 µM
same,Emax,"Tet-On MRGPRX4 2pg/cell, Dox 3300 ng/mL (Fig. S5A), read-out: IP1 Emax",106%
same,Emax,"Tet-On MRGPRX4 2pg/cell, Dox 3300 ng/mL (Fig. S5A), read-out: IP1 span",95.6%
same,IP1 logEC50,"Tet-On MRGPRX4 2pg/cell, Dox […] (Fig. S5A)",-5.040
same,IP1 Basal,"Tet-On MRGPRX4 2pg/cell, No dox (Fig. S5A)",0.7169
same,Emax,"Tet-On MRGPRX4 2pg/cell, No dox (Fig. S5A), read-out: IP1 Emax",72.3%
same,Emax,"Tet-On MRGPRX4 2pg/cell, No dox (Fig. S5A), read-out: IP1 span",71.5%
same,IP1 Basal,"Tet-On MRGPRX4, over 1pg/cell Normalized, Dox 13 ng/mL (Fig. S5C)",-3.443
same,EC50,"Tet-On MRGPRX4, over 1pg/cell Normalized, Dox 13 ng/mL (Fig. S5C), read-out: IP1 EC50",19 µM
same,Emax,"Tet-On MRGPRX4, over 1pg/cell Normalized, Dox 13 ng/mL (Fig. S5C), read-out: IP1 Emax",59.2%
same,Emax,"Tet-On MRGPRX4, over 1pg/cell Normalized, Dox 13 ng/mL (Fig. S5C), read-out: IP1 span",62.7%
same,IP1 Basal,"Tet-On MRGPRX4, over 1pg/cell Normalized, Dox 40 ng/mL (Fig. S5C)",-3.289
same,EC50,"Tet-On MRGPRX4, over 1pg/cell Normalized, Dox 40 ng/mL (Fig. S5C), read-out: IP1 EC50",13.5 µM
same,Emax,"Tet-On MRGPRX4, over 1pg/cell Normalized, Dox 40 ng/mL (Fig. S5C), read-out: IP1 Emax",63.5%
same,Emax,"Tet-On MRGPRX4, over 1pg/cell Normalized, Dox 40 ng/mL (Fig. S5C), read-out: IP1 span",66.8%
same,IP1 Basal,"Tet-On MRGPRX4, over 1pg/cell Normalized, Dox 1100 ng/mL (Fig. S5C)",-2.284
same,EC50,"Tet-On MRGPRX4, over 1pg/cell Normalized, Dox 1100 ng/mL (Fig. S5C), read-out: IP1 EC50",10.7 µM
same,Emax,"Tet-On MRGPRX4, over 1pg/cell Normalized, Dox 1100 ng/mL (Fig. S5C), read-out: IP1 Emax",100%
same,Emax,"Tet-On MRGPRX4, over 1pg/cell Normalized, Dox 1100 ng/mL (Fig. S5C), read-out: IP1 span",102%
same,IP1 Basal,[1],3.818
same,IP1 logEC50,[1],-5.036
same,EC50,"Tet-On MRGPRX4, over 1pg/cell Normalized, Dox 3300 ng/mL (Fig. S5C), read-out: IP1 EC50",9.2 µM
same,Emax,"Tet-On MRGPRX4, over 1pg/cell Normalized, Dox 3300 ng/mL (Fig. S5C), read-out: IP1 Emax",111%
same,Emax,"Tet-On MRGPRX4, over 1pg/cell Normalized, Dox 3300 ng/mL (Fig. S5C), read-out: IP1 span",107%
same,IP1 Basal,"Tet-On MRGPRX4, over 1pg/cell Normalized, No dox (Fig. S5C)",-1.726
same,Emax,"Tet-On MRGPRX4, over 1pg/cell Normalized, No dox (Fig. S5C), read-out: IP1 Emax",55.6%
same,Emax,"Tet-On MRGPRX4, over 1pg/cell Normalized, No dox (Fig. S5C), read-out: IP1 span",57.3%
same,IP1 Basal,Tet-On MRGPRX4:RAMP Ratio 1:0 (Fig. S5D-F),8.926
same,EC50,"Tet-On MRGPRX4:RAMP Ratio 1:0 (Fig. S5D-F), read-out: IP1 EC50",4.06 µM
same,Emax,"Tet-On MRGPRX4:RAMP Ratio 1:0 (Fig. S5D-F), read-out: IP1 Emax",107%
same,Emax,"Tet-On MRGPRX4:RAMP Ratio 1:0 (Fig. S5D-F), read-out: IP1 span",97.7%
same,IP1 Basal,"Tet-On MRGPRX4:RAMP Ratio 1:0, no dox (Fig. S5D-F)",0.2822
same,Emax,"Tet-On MRGPRX4:RAMP Ratio 1:0, no dox (Fig. S5D-F), read-out: IP1 Emax",2.46%
same,Emax,"Tet-On MRGPRX4:RAMP Ratio 1:0, no dox (Fig. S5D-F), read-out: IP1 span",2.17%
same,IP1 Basal,construct FLAG-MRGPRX4-1D4 (Fig. S4A-F),6.903
same,EC50,"construct FLAG-MRGPRX4-1D4 (Fig. S4A-F), read-out: IP1 EC50",10.1 µM
same,Emax,"construct FLAG-MRGPRX4-1D4 (Fig. S4A-F), read-out: IP1 Emax",102%
same,Emax,"construct FLAG-MRGPRX4-1D4 (Fig. S4A-F), read-out: IP1 span",95.1%
same,IP1 Basal,construct FLAG-MRGPRX4-GFP10-1D4 (Fig. S4A-F),7.722
same,EC50,"construct FLAG-MRGPRX4-GFP10-1D4 (Fig. S4A-F), read-out: IP1 EC50",9.91 µM
same,Emax,"construct FLAG-MRGPRX4-GFP10-1D4 (Fig. S4A-F), read-out: IP1 Emax",110%
same,Emax,"construct FLAG-MRGPRX4-GFP10-1D4 (Fig. S4A-F), read-out: IP1 span",102%
same,IP1 Basal,construct FLAG-NLuc-HT7-MRGPRX4-GFP10-1D4 (Fig. S4A-F),8.575
same,EC50,"construct FLAG-NLuc-HT7-MRGPRX4-GFP10-1D4 (Fig. S4A-F), read-out: IP1 EC50",6.41 µM
same,Emax,"construct FLAG-NLuc-HT7-MRGPRX4-GFP10-1D4 (Fig. S4A-F), read-out: IP1 Emax",55.2%
same,Emax,"construct FLAG-NLuc-HT7-MRGPRX4-GFP10-1D4 (Fig. S4A-F), read-out: IP1 span",46.6%
same,IP1 Basal,construct HA-MRGPRX4-1D4 (Fig. S4A-F),13.13
same,EC50,"construct HA-MRGPRX4-1D4 (Fig. S4A-F), read-out: IP1 EC50",10.7 µM
same,Emax,"construct HA-MRGPRX4-1D4 (Fig. S4A-F), read-out: IP1 Emax",91.5%
same,Emax,"construct HA-MRGPRX4-1D4 (Fig. S4A-F), read-out: IP1 span",78.4%
same,IP1 accumulation (normalized),"log [nateglinide] (M) -4, MRGPRX4 no dox",1.452
same,IP1 accumulation (normalized),"log [nateglinide] (M) -4.69897, MRGPRX4",92.3953
same,IP1 accumulation (normalized),"log [nateglinide] (M) -5.39794, MRGPRX4",57.3306
same,IP1 accumulation (normalized),"log [nateglinide] (M) -6.09691, MRGPRX4",20.5565
same,IP1 accumulation (normalized),"log [nateglinide] (M) -6.79588, MRGPRX4",15.0154
same,IP1 accumulation (normalized),"log [nateglinide] (M) -7.49485, MRGPRX4",11.7498
